Source: patent publication US20110065663A1, “ANTI-CANCER COMBINATION THERAPY” (Katholieke Universiteit Leuven, K.U. Leuven R&D, priority 2008, published 2011)
Read-outs that look alike come from different tables or passages of the source.

Assays:
Assay type in all cases: cell-based, human
MCF-7 cells = assay: Tumor cell proliferation assay, uninfected MCF-7 cells; conditions: for IC50: Homo sapiens, uninfected MCF-7; for Ratio (1)/(2) MCF-7: IC50 in the absence of TPi to IC50 in the presence of TPi
Description: MCF-7 and MCF-7/HYOR cells were seeded in 48-well plates at 10,000 cells/cm^2. […] of the test compounds (5FU, 5′DFUR, CIdUrd, BrdUrd, IdUrd and TFT) with or without 10 μM TPi were added. The cells were incubated for another 4 days, trypsinized and counted by a Coulter counter (Analis, Suarlée, Belgium). In some experiments, the antibiotic plasmocin was added one or three days before addition of the test compounds.

MCF-7/HYOR cells [1] = assay: Tumor cell proliferation assay, M. hyorhinis-infected MCF-7 cells; conditions: for IC50: Homo sapiens, MCF7; for Ratio (1)/(2) MCF-7/HYOR: IC50 in the absence of TPi to IC50 in the presence of TPi; for Anti-proliferative activity in MCF-7/HYOR after three days pre-incubation with doxycycline / Anti-proliferative activity in MCF-7/HYOR after three days pre-incubation with plasmocin: 3 days
Description: Mycoplasma hyorhinis (ATCC 17981) was obtained from the American Type Culture Collection (ATCC, Manassas, Va.). The freeze-dried bacteria were reconstituted by adding 1 ml of DMEM. […] The co-culture of MCF-7 cells and M. hyorhinis was maintained under the same conditions as the uninfected MCF-7 cells. […] The cells were incubated for another 4 days, trypsinized and counted by a Coulter counter (Analis, Suarlée, Belgium).

MCF-7/HYOR cells [2] = assay: Nucleotide incorporation assay, MCF-7/HYOR compared with MCF-7 cells; conditions: 1 μCi radiolabeled compound; FIG. 4
Description: MCF-7 and MCF-7/HYOR cells were seeded at 10,000 cells/cm. After 48 hours, cells were treated with 1 μCi of ^3H-labeled nucleoside with or without 10 μM TPi. 16 h later, the medium was removed and the cells were washed twice with PBS. Next, the cells were trypsinized, transferred to Eppendorf tubes and centrifuged for 10 minutes at 1,400 rpm. The pellet was resuspended in 1 ml absolute ice-cold methanol and kept on ice for 20 minutes. After centrifugation for 20 minutes at 13,000 rpm the pellet was washed twice with methanol, resuspended in methanol and transferred to scintillation vials containing 9 ml of Ready safe liquid scintillation reagent (‘Hisafe 3’, Perkin Elmer, Waltham, Mass.). The radioactivity was measured by a Liquid scintillation analyzer (2300 TR, Packard, Canberra, Australia).

MCF-7/HYOR cell cultures = assay: Nucleoside metabolism experiments, distribution of drug-derived radiolabel in MCF-7/HYOR cell cultures; conditions: MCF-7/HYOR
Description: Next, the cells were trypsinized, transferred to Eppendorf tubes and centrifuged for 10 minutes at 1,400 rpm. The pellet was resuspended in 1 ml absolute ice-cold methanol and kept on ice for 20 minutes. After centrifugation for 20 minutes at 13,000 rpm the pellet was washed twice with methanol, resuspended in methanol and transferred to scintillation vials containing 9 ml of Ready safe liquid scintillation reagent (‘Hisafe 3’, Perkin Elmer, Waltham, Mass.). The radioactivity was measured by a Liquid scintillation analyzer (2300 TR, Packard, Canberra, Australia). […] Next, the cells were incubated in 0.5 ml absolute ice-cold methanol and kept on ice for 20 minutes. After centrifugation for 20 minutes at 13,000 rpm, the supernatant was subjected to HPLC analysis. […] The amount of compound incorporated into nucleic acids was measured as described above.

[3] = MCF7, 96 h, no TPi, 4 days, read-out: IC50 MCF-7 As such
[4] = MCF7, with 10 μM TPi, read-out: IC50 MCF-7 +TPi (10 μM)
[5] = M. hyorhinis-infected MCF-7, no TPi, no plasmocin, read-out: IC50 MCF-7/HYOR As such
[6] = M. hyorhinis-infected MCF-7, with 10 μM TPi, read-out: IC50 MCF-7/HYOR +TPi (10 μM)
[7] = plasmocin 25 μg/ml, 1 day pretreatment, read-out: IC50 MCF-7/HYOR +plasmocin (25 μg/ml) 1 day prior to addition of test compounds
[8] = plasmocin 25 μg/ml, 3 days pretreatment, read-out: IC50 MCF-7/HYOR +plasmocin (25 μg/ml) 3 days prior to addition of test compounds

| Structure (SMILES) | IC50 (MCF-7 cells; [3]) [µM] | IC50 (MCF-7 cells; [4]) [µM] | Ratio (1)/(2) MCF-7 (MCF-7 cells) | IC50 (MCF-7/HYOR cells [1]; [5]) [µM] | IC50 (MCF-7/HYOR cells [1]; [6]) [µM] | Ratio (1)/(2) MCF-7/HYOR (MCF-7/HYOR cells [1]) | Incorporation into nucleic acids, infected versus uninfected MCF-7 cells (in words) (MCF-7/HYOR cells [2]) | also measured |
| --- | --- | --- | --- | --- | --- | --- | --- | --- |
| O=c1[nH]cc(F)c(=O)[nH]1 [5FU, 5-fluorouracil] | 0.81 ± 0.24 | 0.62 ± 0.29 | 1.3 | 0.75 ± 0.24 | 0.53 ± 0.25 | 1.4 | no difference | IC50 (MCF-7/HYOR cells [1]; [7]): 0.74 ± 0.11 µM; IC50 (MCF-7/HYOR cells [1]; [8]): 0.67 ± 0.11 µM |
| O=c1[nH]c(=O)n([C@H]2C[C@H](O)[C@@H](CO)O2)cc1Br [BrdUrd, 5-bromo-2′-deoxyuridine] | 0.59 ± 0.1 | 0.36 ± 0.01 | 1.6 | 8.6 ± 1.17 | 0.84 ± 0.24 | 10 |  | IC50 (MCF-7/HYOR cells [1]; [7]): 2.22 ± 1.1 µM; IC50 (MCF-7/HYOR cells [1]; [8]): 0.74 ± 0.2 µM; % of drug-derived radiolabel, In medium, Base (MCF-7/HYOR cell cultures; 1 μCi, 16 h): 49.5%; % of drug-derived radiolabel, In medium, Nucleoside (MCF-7/HYOR cell cultures; 1 μCi, 16 h): 42.0%; % of drug-derived radiolabel, In the cytosol of the cells, 5′-diphosphate (MCF-7/HYOR cell cultures; 1 μCi, 16 h): 0.2%; % of drug-derived radiolabel, In the cytosol of the cells, 5′-monophosphate (MCF-7/HYOR cell cultures; 1 μCi, 16 h): 0.4%; % of drug-derived radiolabel, In the cytosol of the cells, 5′-triphosphate (MCF-7/HYOR cell cultures; 1 μCi, 16 h): 0.2%; % of drug-derived radiolabel, In the cytosol of the cells, Nucleoside/nucleobase (MCF-7/HYOR cell cultures; 1 μCi, 16 h): 6.4%; % of drug-derived radiolabel, Incorporatio into DNA/RNA (MCF-7/HYOR cell cultures; 1 μCi, 16 h): 1.4%; Share incorporated into the nucleic acids in the presence of TPi (MCF-7/HYOR cell cultures; in the presence of TPi): almost all; Reduction of incorporation into nucleic acids in infected MCF-7/HYOR cells in comparison with uninfected MCF-7 cells (MCF-7/HYOR cells [2]): 45 fold |
| O=c1[nH]c(=O)n([C@H]2C[C@H](O)[C@@H](CO)O2)cc1Cl [CldUrd, 5-chloro-2′-deoxyuridine] | 0.76 ± 0.19 | 0.64 ± 0.15 | 1.2 | 13 ± 2.87 | 1.4 ± 0.7 | 9.3 |  |  |
| O=c1[nH]c(=O)n([C@H]2C[C@H](O)[C@@H](CO)O2)cc1I [IdUrd, 5-iodo-2′-deoxyuridine] | 1.1 ± 0.26 | 0.98 ± 0.39 | 1.1 | 12 ± 0.5 | 0.31 ± 0.05 | 39 |  |  |
| O=c1[nH]cc(C(F)(F)F)c(=O)[nH]1 [TF-thymine] |  |  |  |  |  |  | no difference |  |
| Nc1ccn([C@@H]2O[C@H](CO)[C@@H](O)[C@@H]2O)c(=O)n1 [araC, cytarabine] | 0.05 ± 0.004 | 0.048 ± 0.009 | 1.0 | 1.2 ± 0.8 | 0.068 ± 0.003 | 17 |  | Anti-proliferative activity in MCF-7/HYOR after three days pre-incubation with doxycycline (MCF-7/HYOR cells [1]): restores; Anti-proliferative activity in MCF-7/HYOR after three days pre-incubation with plasmocin (MCF-7/HYOR cells [1]; plasmocin 25 μg/ml): restores |
| Nc1nc(Cl)nc2c1ncn2[C@H]1C[C@H](O)[C@@H](CO)O1 [cladribine] | 0.46 ± 0.15 | 0.39 ± 0.16 | 1.2 | 13 ± 3 | 0.78 ± 0.23 | 17 |  | Reduction of cytostatic activity in infected MCF-7/HYOR compared to control MCF-7 cells (MCF-7/HYOR cells [1]; M. hyorhinis infection): about 30 fold; Anti-proliferative activity in MCF-7/HYOR after three days pre-incubation with doxycycline (MCF-7/HYOR cells [1]): restores; Anti-proliferative activity in MCF-7/HYOR after three days pre-incubation with plasmocin (MCF-7/HYOR cells [1]; plasmocin 25 μg/ml): restores |
| O=c1ccn([C@H]2C[C@H](O)[C@@H](CO)O2)c(=O)[nH]1 [dUrd, 2′-deoxyuridine] |  |  |  |  |  |  |  | Reduction of incorporation into nucleic acids in infected MCF-7/HYOR cells in comparison with uninfected MCF-7 cells (MCF-7/HYOR cells [2]): 3 fold |
| Cc1c[nH]c(=O)[nH]c1=O [thymine] |  |  |  |  |  |  | no difference |  |
| O=c1cc[nH]c(=O)[nH]1 [uracil] |  |  |  |  |  |  | no difference |  |
